Source: patent publication US6369208B1, “Capped synthetic RNA, analogs, and aptamers” (Merck & Co., Inc., priority 1995, dated 2002)

Legend:
influenza endonuclease [1] = biological target: T1, influenza endonuclease (Influenza A virus, UniProt P03428+P03433)
influenza endonuclease [2] = biological target: T1, influenza endonuclease; remark: listed apart in the source
influenza endonuclease [3] = biological target: T1, influenza endonuclease; remark: listed apart in the source

Substance: m^7GpppG(2′-OMe)UAUUAAUA(3′-dA)-3′ [SEQ.ID.NO.:3]
- inhibition of influenza endonuclease (in words) (influenza endonuclease [1]): potent inhibitor of influenza endonuclease
- binding of the labeled capped 10-mer displaced by competition with unlabeled competitor (influenza endonuclease [2]): 95%
- saturation amplitude (influenza endonuclease [2]): 5.2 nM

Substance: pppG(2′-OMe)UAUUAAUA(3′dA)-3′ [SEQ.ID.NO.:21]
- binding of the labeled capped 10-mer competed by unlabeled competitor (influenza endonuclease [2]): 10%

Substance: pppG(2′-OMe)UUUUUAUUUUUAAUUUUC-3′ [SEQ.ID.NO.:4]
- Km (influenza endonuclease [3]): 0.4 nM
- site of cleavage by influenza endonuclease (influenza endonuclease [3]): between the two A's at positions 13-14
